Reference: patent publication US11253507B2 (Singapore Health Services PTE LTD, priority 2017, dated 2022)
Several values for one entry are separate records, joined by “and”; a condition that tells them apart may be missing. Equal values may be shown once.

Legend:
C57BL/6J mice = test: Spectacle lens-induced myopia (−15 D lens) model, ocular biometry (axial length, refraction) after 0.01% atropine pre-treatment; format: in vivo; details: for Change in AL, Avg +/− SEM: Group 2 mean (n=7), 0.01% atropine pre-treatment for 2 weeks
Description: Animals: Three weeks old C57BL/6J mice were purchased from InVivos, Singapore and were held at the animal holding unit of SingHealth Experimental Medicine Centre. The experimental animals were housed individually in standard mouse cages at 25° C. on a schedule of 12:12 h of light on (325 lx) and off (0 lx), with mouse pellets and water available ad libidum. All the procedures performed in this study complied with the Association of Research in Vision and Ophthalmology (ARVO) Statement for the Use of Animals in Ophthalmic and Vision Research and were approved by SingHealth IACUC. Both the eyes of each animal were screened for the ophthalmic abnormalities, such as corneal opacities and anterior polar cataracts.
Mouse model of experimental myopia: Spectacle lens-induced myopia model was established by placing −15 D hard lens on the right eye of the animal, which served as the experimental eye, at post-natal day 35. Briefly, a −15 D lens (PMMA spectacle lens in blue tint, radius of outer curvature 8.5, inner curvature 8 mm, lens thickness 0.5 mm, Flexilens, India) was glued to an annulus (with 8 mm base curve) of Velcro. This mating piece was then attached to the Velcro that had been previously glued to the hair around the right experimental eye using a cyanoacrylate (Super Glue gel, UHU, Germany). This set up ensures that an air gap of 1.5 mm existed between the back part of the lens and the anterior surface of the cornea, so that the contact lens optically acted as a spectacle lens. The right eye of naïve group was attached with plano lens and acted as a negative control in the experimental study. Both the eyes in each animal were examined daily for any infection and the lenses were also cleaned regularly in dim red light. Left eyes were kept uncovered and were not used for any ocular biometry measurement in this study. Elizabethan collars made from thin plastic were fitted around the neck of each mouse upon lens-induction. This was done so as to prevent the mice from removing their lenses. Food pellets were placed on the floor of the cage to make eating easier. This strategy has also been followed previously by other groups doing mouse model of lens-induced myopia (Schaeffel et al., 2004).
Treatment protocols: A total of 27 mice were divided into 4 different groups as mentioned in Table 1, below. […] 7 μL of drug was administered topically to the right eye in dim red light at the same time each day. This was followed by lens (either −15 D or plano) induction on post-natal day 35, that was kept attached until day 49.
(§1) Ocular biometry such as axial length (AL) and refraction measurements were measured as described in Example 2. The measurements were done just before and 2 weeks after lens-induction, at days 35 and 49, respectively. The data was analyzed using the GraphPad Prism software version 7.02. Changes in AL and refraction between any two groups were analyzed using independent unpaired t-tests. A difference at p value<0.05 was considered statistically significant. Data are reported as mean+/−SEM. The body weights were recorded at post-natal days 22, 35 and 49.

myopic children = details: 0.01% atropine daily, cited from earlier work
[1] = Body weights in the lens-induced myopia study; format: in vivo, mice; details: 0.01% atropine topical; post-natal days 22, 35 and 49
Description: as §1, with “49. […] Changes in AL and refraction at day 49 relative to measurements at day 35 are shown in FIG. 3A and FIG. 3B, respectively.” for “49.”

B6J (Mus musculus) mice = test: Murine myopia model (−10 D lens), atropine sulfate eye drops prior to inducing myopia, ocular biometry; format: in vivo
Description: Animals: Breeding pair B6J (Mus musculus) mice were obtained from Jackson Lab and produced offspring. Naive control animals were housed in groups of 6 while experimental animals were housed individually in standard mouse cages after 21 days of age at 25° C. on a schedule of 12:12 h of light on and off with mouse pellets and water available ad libidum. Approval was obtained from the SingHealth Institutional Animal Care and Use of Committee (IACUC) and all procedures performed in this study complied with the Association of Research in Vision and Ophthalmology (ARVO) Statement for the Use of Animals in Ophthalmology and Vision Research.
Murine Myopia Model: A −10 D contact lens (PMMA Contact Lens in Grey Tint, 8.5 mm diameter, 8 mm base curve, refractive Index: 1.43, axial thickness: 0.5 mm) was placed over the right eye on day 21 by gluing to an annulus of velcro, and then attaching to a matching piece of velcro that had been previously sutured to the skin around the eye. The spectacle lenses were cleaned daily in dim light and left eyes were uncovered and served as controls. […]
Ocular biometry assessment: Refractions and biometry measurements were recorded every week until the end of the study. Axial length was measured with in vivo Optic Low Coherence Interferometry (OLCI-AcMaster). Refraction was measured by automated eccentric photorefractor. […]

patients = test: Adverse effects of treatment with very low concentration atropine composition (pupil dilation, loss of accommodation); format: in vivo, human; details: composition with very low concentration of atropine (less than 0.025%, e.g. 0.01%); mean +/− SD
Text: The pupil dilation associated with the treatment is often no greater than 2 mm, e.g., no greater than 1.9 mm, no greater than 1.8 mm, no greater than 1.7 mm, no greater than 1.5 mm, or no greater than 1.49 mm. Typically, patients treated with the composition disclosed above may experience pupil dilation of 0.74+/−0.75 mm. The loss of accommodation associated with the treatment is also minimal, typically no greater than 10 D, e.g., no greater than 9 D, no greater than 8.5 D, no greater than 8.8 D, or no greater than 8 D. Typically, patents treated with the composition disclosed above may experience a loss of accommodation of 4.6+/−4.2 D.

[2] = Group 2, 0.01% atropine pre-treatment day 22-35, 2 weeks after −15 D lens induction, individual mice
[3] = Group 2, 0.01% atropine pre-treatment, day 49 relative to day 35, −15 D lens, individual mice

## CN1[C@@H]2CC[C@H]1C[C@@H](OC(=O)C(CO)c1ccccc1)C2 (stereo partly shown) [Atropine, atropine]
C57BL/6J mice; 0.01% atropine topical for 2 weeks before lens-induction, two-tailed p-value=0.1557
  Reduction of the increase in AL as compared to vehicle pre-treated myopic eyes: ~15%
C57BL/6J mice; Group 2, 0.01% atropine 7 μL topical daily, day 22-35, right eye, just before −15 D lens induction, individual mice
  Refraction at D35: 7.44 Diopter and 3.71 Diopter and 7.66 Diopter and 5.96 Diopter and 5.29 Diopter and 5.43 Diopter and 8.34 Diopter
C57BL/6J mice; Group 2, 0.01% atropine 7 μL topical daily, post-natal day 22-35, right eye, just before −15 D lens induction, individual mice
  AL at D35: 3.189 mm and 3.159 mm and 3.195 mm and 3.214 mm and 3.297 mm and 3.250 mm and 3.269 mm
C57BL/6J mice; [2]
  AL at D49: 3.268 mm and 3.238 mm and 3.277 mm and 3.340 mm and 3.374 mm and 3.335 mm and 3.386 mm
  Refraction at D49: 5.22 Diopter and −1.85 Diopter and 6.30 Diopter and 6.26 Diopter and 6.27 Diopter and 4.17 Diopter and 8.14 Diopter
C57BL/6J mice; [3]
  Change in AL: 0.079 mm (2×) and 0.082 mm and 0.126 mm and 0.077 mm and 0.084 mm and 0.117 mm
  Change in refraction: −2.22 Diopter and −5.57 Diopter and −1.37 Diopter and 0.30 Diopter and 0.99 Diopter and −1.26 Diopter and −0.20 Diopter
C57BL/6J mice; day 49 relative to day 35, −15 D lens
  Change in AL, Avg +/− SEM: 0.092 mm
C57BL/6J mice; day 49 relative to day 35, −15 D lens, listed as atropine
  Change in AL, Avg +/− SEM: 0.092 mm
Myopic children; ATOM1 and ATOM2
  Reduction of mean 2-year decline in SE vs placebo: about 58%
Myopic children; placebo about −1.2 D (Chia et al.)
  Mean 2-year decline in SE: ~−0.5 D
[1]
  Impact on body weights: Neither the drug (atropine and vehicle) nor the lens treatment adversely impacted the body weights
B6J (Mus musculus) mice; Atropine sulfate 1% for 2 weeks prior to −10 D lens for 4 weeks, FIG. 1B, p<0.01 vs −10 D lens alone
  Refractive error (refraction state): remained hyperopic
B6J (Mus musculus) mice; Group 2: 1% daily 10 μl topical from day 21 for 2 weeks, then −10 D lens for 4 weeks, FIG. 1A, p<0.01, n=18
  Effect on axial elongation (axial length): blocked most of the elongation of axial length
patients
  Loss of accommodation: 4.6+/−4.2 D
  Pupil dilation: 0.74+/−0.75 mm
